Experimental data taken from patent US8431715B2, “Thiazole compound (as PPARδ) ligand and pharmaceutical, cosmetic and health food comprised thereof” (Seoul National University Industry Foundation, priority 2007, dated 2013).

How the values were obtained:
C57BL/6 mice [1] = test: Obesity inhibitory effect, high-fat feed; type: in vivo; details: 10 mg/Kg/day oral, 35% fat feed for 35 days; vehicle 58.9%
Protocol: An animal test using mice was performed to confirm the in vivo effect of the compound of the present invention. C57BL/6 (SLC Co.) mice at 14 weeks were used. To induce obesity, feeds containing 35% fat were given.

C57BL/6 mice [2] = test: Muscle endurance test in adults with exercise, treadmill; type: in vivo; details: 10 mg/kg oral, mice at 10 weeks, treadmill exercise 30 days
Protocol: Particularly, the compound of formula 1 was orally administered to C57BL/6 mice at 10 weeks at the concentration of 10 mg/kg, during which the mice were forced to exercise. The exercise was performed with treadmill for […] once a day for 30 days, precisely at the speed of 2 meter/min for the first 5 minutes, at 5 meter/min for 5 minutes, at 8 meter/min for 5 minutes and at 20 meter/min for the last 5 minutes. At the finish, muscle endurance and muscle function enhancing effect was tested by using treadmill. As a result, the time (1.5 fold) and distance (1.6 fold) of exercise were all increased in the group treated with the compound of the present invention, when compared with the control.

C57BL/6 mice [3] = test: Morris water maze test, LPS brain disease animal model; type: in vivo
Protocol: The therapeutic effect of the compound of the present invention on dementia and Parkinson's disease based on the memory improving effect thereof was investigated using brain disease animal model (C57BL/6 mice at 10 weeks). First, LPS was injected into the mouse brain to construct brain disease animal model. The mice were divided into four groups according to the administration and exercise. The exercise was performed with treadmill at the speed of 2 meter/min for the first 5 minutes, at 5 meter/min for 5 minutes, at 8 meter/min for 5 minutes and at 20 meter/min for the last 5 minutes. At the finish, Morris water maze test was performed. As a result, the therapeutic effect of the compound of formula 1 of the present invention on dementia and Parkinson's disease via memory enhancement by the compound and exercise was confirmed in the brain disease animal model.

ICR mice = test: Acute toxicity test; type: in vivo; details: oral, up to 2000 mg/kg, 14 days
Protocol: Acute toxicity and reproductive toxicity tests were performed using mice to evaluate the toxicity of the compound of the present invention. The compound of formula 1 was orally administered to ICR mice at 6 weeks at the dosage of 50 mg/kg, 300 mg/kg and 2000 mg/kg, followed by observation on toxicity for 14 days. […] The result of reproductive toxicity test using C57BL/6 mice was also consistent with the above, which is no toxicity caused by the compound of formula 1 was observed. After oral-administration of the compound to the pregnant female mice, weight gain and growth speed of fetus were investigated.

mice [4] = test: Morris water maze test, treatment in pregnancy and lactation; type: in vivo; details: 10 mg/kg oral to pregnant mice, control 24.2 sec
Protocol: An animal test was performed to investigate the therapeutic effect of the compound of the present invention on dementia and Parkinson's disease based on the memory improving effect thereof. To confirm the effect of the compound of the present invention in the period of brain development, the compound was orally administered to pregnant mice at the concentration of 10 mg/kg in the periods of pregnancy and lactation. Morris water maze test was performed to detect any changes of the brain functions of the treatment group and the control group.

CV-1 cells = test: MTT assay, cytotoxicity; type: cell-based; details: 24 hours, even at the concentration of 100,000 times the EC50 value
Protocol: MTT assay was performed to test cytotoxicity of the compounds of the present invention. MTT is a yellow substance soluble in water, but when it is introduced into a living cell, it turns into a purple insoluble crystal by dehydrogenase in mitochondria. Cytotoxicity can be confirmed by measuring OD550 after dissolving MTT in dimethylsulfoxide. The experiment was performed as follows.
CV-1 cells were inoculated in a 96-well plate (5000 cells/well). The cells were cultured in a 37[…] 5% CO2 incubator for 24 hours, and treated with the compounds of formula 1 and formula 2 at different concentrations. Then, the cells were cultured for 24 hours again, to which MTT reagent was added. After culturing for 15 minutes, the generated purple crystals were dissolved in dimethylsulfoxide. Optical density was measured with a microplate reader to confirm cytotoxicity.

mice [5] = test: Muscle endurance test, treatment during pregnancy and/or lactation, treadmill; type: in vivo
Protocol: An animal test was performed to confirm muscle endurance strengthening and muscle function enhancing effect of the compound of the present invention. Most muscles are generated in the developmental stage. Thus, the compound of formula 1 (10 mg/Kg/day) were orally administered to pregnant mice in the period of either pregnancy or lactation or both pregnancy and lactation. […] Muscles were observed after removing skin. As a result, muscles of the treatment group were red, unlike the controlled one. ATPase staining and immunostaining were performed. As a result, type I muscle fiber was increased in the group treated with the compound of formula 1. The effect of the changes of the muscle fiber on the enhancement of muscle endurance and muscle function was investigated by using treadmill test. As a result, running time was much extended in the group treated with the compound of formula 1.

[6] = 10 mg/Kg/day oral to pregnant mice
[7] = 10 mg/Kg/day oral to pregnant mice, pregnancy
[8] = 10 mg/Kg/day oral, Pregnancy + lactation

## Cc1cc(S[C@H](Cc2ccccc2)c2sc(-c3ccc(C(F)(F)F)cc3)nc2C)ccc1OCC(=O)O (racemic) [formula 1]
C57BL/6 mice [1]
  weight increase: 23.1%
C57BL/6 mice [2]
  distance of exercise compared with the control: 1.6 fold
  time of exercise compared with the control: 1.5 fold
C57BL/6 mice [3]; Exercise (O), control 29 seconds
  Results of water maze test: 13 s
C57BL/6 mice [3]; Exercise (X), control 36 seconds
  Results of water maze test: 25 s
ICR mice
  changes on weight and feed taking: no significant changes
Mice [4]
  average time spent to find the platform: 6.8 s
CV-1 cells
  cytotoxicity: not to have cytotoxicity
Mice [5]; [6]
  muscle colour after removing skin: red
  weight gain and growth rate of fetuses versus control: not much different
Mice [5]; [7]
  Increasing rate (treatment group/control group), length: 2.4 times
  Increasing rate (treatment group/control group), time: 2.3 times
Mice [5]; [8]
  Increasing rate (treatment group/control group), length: 3.0 times
  Increasing rate (treatment group/control group), time: 2.9 times
Mice [5]; 10 mg/Kg/day oral, lactation
  Increasing rate (treatment group/control group), length: 2.2 times
  Increasing rate (treatment group/control group), time: 2.1 times
Mice [5]; ATPase staining and immunostaining
  type I muscle fiber: increased
Mice [5]; treadmill test
  running time: much extended
